Assays:
[1] = target: M2R; conditions: Figure 1, M2R antagonists; published data, reference numbers not given; cited from earlier work
[2] = target: T1, hM1R (Homo sapiens, UniProt P11229); assay: Radioligand competition binding, [3H]-scopolamine (N-methyl), CHO cell membranes, hM1R; conditions: mean ± SD, n = 3; membranes from CHO cells transfected with hM1R; read-out: Receptor Ki M1
T1 construct: expressed in transfected cells; host or cells: CHO cell membranes
T1 sequence (P11229 1-460): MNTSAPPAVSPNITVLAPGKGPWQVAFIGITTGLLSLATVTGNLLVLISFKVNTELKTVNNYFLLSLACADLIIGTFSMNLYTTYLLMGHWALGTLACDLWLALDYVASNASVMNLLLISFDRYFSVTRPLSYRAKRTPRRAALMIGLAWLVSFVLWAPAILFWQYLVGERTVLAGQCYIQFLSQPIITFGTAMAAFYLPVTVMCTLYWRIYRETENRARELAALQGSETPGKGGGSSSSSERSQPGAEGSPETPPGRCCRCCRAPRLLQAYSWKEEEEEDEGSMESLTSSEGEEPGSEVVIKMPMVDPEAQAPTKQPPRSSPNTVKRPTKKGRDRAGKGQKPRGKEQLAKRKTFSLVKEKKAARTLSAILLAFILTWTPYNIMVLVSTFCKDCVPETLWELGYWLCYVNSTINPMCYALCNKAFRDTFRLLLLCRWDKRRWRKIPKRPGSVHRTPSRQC

[3] = target: T2, hM2R (Homo sapiens, UniProt P08172); assay: Radioligand competition binding, [3H]-scopolamine (N-methyl), CHO cell membranes, hM2R; conditions: mean ± SD, n = 3; membranes from CHO cells transfected with hM2R; read-out: Receptor Ki M2
T2 construct: expressed in transfected cells; host or cells: CHO cell membranes
T2 sequence (P08172 1-466): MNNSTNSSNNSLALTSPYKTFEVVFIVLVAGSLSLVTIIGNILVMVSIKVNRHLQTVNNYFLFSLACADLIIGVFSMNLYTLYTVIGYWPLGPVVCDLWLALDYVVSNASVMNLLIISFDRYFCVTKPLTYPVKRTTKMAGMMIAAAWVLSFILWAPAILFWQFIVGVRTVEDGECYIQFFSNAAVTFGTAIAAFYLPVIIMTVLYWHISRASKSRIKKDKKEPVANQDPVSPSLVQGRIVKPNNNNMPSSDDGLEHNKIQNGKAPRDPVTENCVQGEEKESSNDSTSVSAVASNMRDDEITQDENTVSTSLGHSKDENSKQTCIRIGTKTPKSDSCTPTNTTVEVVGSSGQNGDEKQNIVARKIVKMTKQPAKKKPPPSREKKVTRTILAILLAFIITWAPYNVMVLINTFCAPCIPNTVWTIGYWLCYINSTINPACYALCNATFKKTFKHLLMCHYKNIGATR

[4] = target: T3, hM3R (Homo sapiens, UniProt P20309); assay: Radioligand competition binding, [3H]-scopolamine (N-methyl), CHO cell membranes, hM3R; conditions: mean ± SD, n = 3; membranes from CHO cells transfected with hM3R; read-out: Receptor Ki M3
T3 construct: expressed in transfected cells; host or cells: CHO cell membranes
T3 sequence (P20309 whole entry): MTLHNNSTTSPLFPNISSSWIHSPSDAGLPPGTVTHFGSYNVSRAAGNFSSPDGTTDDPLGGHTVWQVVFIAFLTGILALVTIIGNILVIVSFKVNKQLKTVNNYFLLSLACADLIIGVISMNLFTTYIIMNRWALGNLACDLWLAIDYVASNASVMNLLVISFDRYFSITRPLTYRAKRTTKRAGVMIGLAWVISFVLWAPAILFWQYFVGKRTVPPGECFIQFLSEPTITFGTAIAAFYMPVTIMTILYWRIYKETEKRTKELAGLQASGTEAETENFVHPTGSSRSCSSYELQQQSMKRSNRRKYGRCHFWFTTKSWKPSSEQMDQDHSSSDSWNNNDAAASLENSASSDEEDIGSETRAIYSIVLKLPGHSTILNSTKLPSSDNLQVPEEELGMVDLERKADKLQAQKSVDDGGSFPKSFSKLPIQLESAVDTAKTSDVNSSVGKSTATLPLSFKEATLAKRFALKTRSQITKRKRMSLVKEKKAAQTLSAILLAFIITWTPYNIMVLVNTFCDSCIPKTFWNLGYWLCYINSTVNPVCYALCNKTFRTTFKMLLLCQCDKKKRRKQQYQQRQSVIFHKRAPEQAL

[5] = target: T4, hM4R (Homo sapiens, UniProt P08173); assay: Radioligand competition binding, [3H]-scopolamine (N-methyl), CHO cell membranes, hM4R; conditions: mean ± SD, n = 3; membranes from CHO cells transfected with hM4R; read-out: Receptor Ki M4
T4 construct: expressed in transfected cells; host or cells: CHO cell membranes
T4 sequence (P08173 1-479): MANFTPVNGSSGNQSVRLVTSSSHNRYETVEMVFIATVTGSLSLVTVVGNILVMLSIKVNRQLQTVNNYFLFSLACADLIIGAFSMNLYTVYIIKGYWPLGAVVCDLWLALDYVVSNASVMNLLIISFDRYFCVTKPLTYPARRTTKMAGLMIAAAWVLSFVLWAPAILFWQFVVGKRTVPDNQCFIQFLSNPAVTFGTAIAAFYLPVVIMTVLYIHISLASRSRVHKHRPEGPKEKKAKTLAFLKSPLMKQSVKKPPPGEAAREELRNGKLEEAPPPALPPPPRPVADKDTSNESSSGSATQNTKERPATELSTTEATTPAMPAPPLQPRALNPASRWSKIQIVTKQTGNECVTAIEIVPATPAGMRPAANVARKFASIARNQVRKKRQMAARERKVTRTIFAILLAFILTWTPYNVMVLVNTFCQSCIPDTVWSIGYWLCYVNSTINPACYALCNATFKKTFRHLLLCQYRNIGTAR

[6] = target: T5, hM5R (Homo sapiens, UniProt P08912); assay: Radioligand competition binding, [3H]-scopolamine (N-methyl), CHO cell membranes, hM5R; conditions: mean ± SD, n = 3; membranes from CHO cells transfected with hM5R; read-out: Receptor Ki M5
T5 construct: expressed in transfected cells; host or cells: CHO cell membranes
T5 sequence (P08912 1-532): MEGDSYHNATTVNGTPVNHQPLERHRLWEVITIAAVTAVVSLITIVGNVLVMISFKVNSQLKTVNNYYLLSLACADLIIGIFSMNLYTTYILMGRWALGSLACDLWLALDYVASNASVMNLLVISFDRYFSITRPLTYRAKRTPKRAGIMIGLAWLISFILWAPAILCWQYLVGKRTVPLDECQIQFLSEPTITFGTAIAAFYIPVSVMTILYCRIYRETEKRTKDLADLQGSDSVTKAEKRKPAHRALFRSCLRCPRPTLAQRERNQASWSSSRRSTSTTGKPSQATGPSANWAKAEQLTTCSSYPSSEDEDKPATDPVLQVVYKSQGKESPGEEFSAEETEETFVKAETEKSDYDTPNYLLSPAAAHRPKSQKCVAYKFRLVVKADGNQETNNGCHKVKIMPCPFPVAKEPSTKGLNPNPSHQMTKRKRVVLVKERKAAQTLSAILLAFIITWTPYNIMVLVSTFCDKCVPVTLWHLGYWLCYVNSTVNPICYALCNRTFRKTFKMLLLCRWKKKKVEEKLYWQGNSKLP

[7] = target: T6, M2R (Homo sapiens, UniProt P08172); assay: BRET-based TRUPATH GoA activation assay, antagonism of carbachol-induced G protein activation; format: cell-based; conditions: for mode of antagonism of carbachol-induced G protein activation: TRUPATH GoA assay
T6 sequence (P08172 1-466): T2 sequence (P08172 1-466)

[8] = system: M1; conditions: Figure 1; published data, reference numbers not given; cited from earlier work
[9] = system: M3; conditions: Figure 1; published data, reference numbers not given; cited from earlier work
[10] = system: M4; conditions: Figure 1; published data, reference numbers not given; cited from earlier work
[11] = system: M5; conditions: Figure 1; published data, reference numbers not given; cited from earlier work
[12] = literature statement, reference numbers not given; cited from earlier work

Ki [2] [nM]	Ki [4] [nM]	Ki [5] [nM]	Ki [6] [nM]	Structure (SMILES)	Ki [1] [nM]	mode of antagonism of carbachol-induced G protein activation [7]	M2R selectivity M1/M2 [8]	also measured
–	–	–	–	CCN(CC)CC1CCCCN1CC(=O)N1c2ccccc2C(=O)Nc2cccnc21 (stereo not drawn) [Compound 2]	105	–	–	–
113 ± 8	373 ± 38	6.2 ± 0.9	8.5 ± 0.9	NCCOCCOCCC(=O)NCCOCCOCCNc1ccccc1C(=O)N1CCC(N2CCC(Cc3ccc(S(=O)(=O)c4cccc(Cl)c4)cc3)CC2)CC1.O=C(O)C(F)(F)F [Compound 32]	–	competitive antagonists	–	Ki [3]: 1.1 ± 0.1 nM; Log(IC50) ± SD (M), carbachol-induced GoA protein activation ([7]; log10 of IC50 (negative values), HEK 293T, compound 20 min, then 10 μM carbachol 15 min, Hill-slope = 1, n = 3): –6.97 ± 0.12 M
–	–	–	–	Cc1ccccc1C(=O)N1CCC(N2CCC(Cc3ccc(S(=O)(=O)c4ccc5c(c4)OCO5)cc3)CC2)CC1 [Compound 3]	0.02	–	1400	M2R selectivity M3/M2 [9]: 730; M2R selectivity M4/M2 [10]: 37; M2R selectivity M5/M2 [11]: 280; pharmacokinetics [12]: poor
143 ± 11	496 ± 36	7.4 ± 0.6	8.6 ± 0.7	NCCOCCOCCNc1ccccc1C(=O)N1CCC(N2CCC(Cc3ccc(S(=O)(=O)c4cccc(Cl)c4)cc3)CC2)CC1 [Compound 30]	–	–	–	–
–	–	–	–	CCCC(C)(C)C(=O)N(CC)CCCC1CCN(CC(=O)N2c3ccc(Cl)cc3C(=O)Nc3cccnc32)CC1 [Compound 1]	30.2	–	35	–

Structure (SMILES)	Ki [2] [nM]	Ki [4] [nM]	Ki [5] [nM]	Ki [6] [nM]	Ki [1] [nM]	mode of antagonism of carbachol-induced G protein activation [7]	M2R selectivity M1/M2 [8]	also measured
Nc1ccccc1C(=O)N1CCC(N2CCC(Cc3ccc(S(=O)(=O)c4cccc(Cl)c4)cc3)CC2)CC1 [Compound 28]	425 ± 32	–	9.4 ± 1.1	–	–	competitive antagonists	–	oral bioavailability [12]: good

— publication PMC11995211, “Design, Synthesis, and Evaluation of a New Fluorescent Ligand for the M2 Muscarinic Acetylcholine Receptor” (ACS Medicinal Chemistry Letters, 2025)
